Results from PubChem BioAssay (NCI).
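Five concentrations, 48 hours, 96-well plates. GI50 marks 50% less growth. At the TGI there is no net growth.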

Assays:
Test in all cases: NCI anticancer screen, dose series, 48 h
ACHN renal = test system: ACHN renal
COLO 205 colon = test system: COLO 205 colon
HCT-116 colon = test system: HCT-116 colon
HOP-92 NSCLC = test system: HOP-92 NSCLC
OVCAR-4 ovarian = test system: OVCAR-4 ovarian
SF-295 CNS = test system: SF-295 CNS
UO-31 renal = test system: UO-31 renal
HL-60(TB) leukemia = test system: HL-60(TB) leukemia
RPMI-8226 leukemia = test system: RPMI-8226 leukemia
DU-145 prostate = test system: DU-145 prostate

Row | Structure (SMILES) | GI50 (ACHN renal) | TGI (ACHN renal) | GI50 (COLO 205 colon) | TGI (COLO 205 colon) | GI50 (HCT-116 colon) | TGI (HCT-116 colon) | GI50 (HOP-92 NSCLC) | TGI (HOP-92 NSCLC) | GI50 (OVCAR-4 ovarian) | TGI (OVCAR-4 ovarian) | GI50 (SF-295 CNS) | TGI (SF-295 CNS) | GI50 (UO-31 renal) | TGI (UO-31 renal) | GI50 (HL-60(TB) leukemia) | TGI (HL-60(TB) leukemia) | GI50 (RPMI-8226 leukemia) | TGI (RPMI-8226 leukemia) | GI50 (DU-145 prostate) | TGI (DU-145 prostate)
1 | CCC[CH2][Sn]1([CH2]CCC)[O]C(=O)C(C(C)C)N=Cc2ccccc2[O]1 (stereo not given) | 0.274 µM | 0.882 µM | 0.213 µM | 0.693 µM | 0.547 µM | 1.78 µM | 0.131 µM | 0.442 µM | 0.836 µM | 2.07 µM | 1.04 µM | 2.29 µM | 0.462 µM | 1.8 µM |  |  |  |  |  | 
2 | N.N.N.N.N.O=C([O-])c1nn[n-]n1.[Cl-].[Co+3] | > 100 µM | > 100 µM | > 100 µM | > 100 µM | > 100 µM | > 100 µM | > 100 µM | > 100 µM | > 100 µM | > 100 µM | > 100 µM | > 100 µM | > 100 µM | > 100 µM | > 100 µM | > 100 µM | > 100 µM | > 100 µM |  | 
3 | Nc1ccc(/C=C/c2ccnc3ccccc23)cc1 |  | > 100 µM |  | 48.6 µM |  | 42.4 µM |  | 50.9 µM |  | > 100 µM |  | 46.1 µM |  | 47.5 µM |  | 23.8 µM |  | 52.7 µM |  | 
4 | CC(C)=CCC/C(=C/CC/C(C)=C/CCc1ccoc1)C(=O)O |  | > 100 µM |  | > 100 µM |  | > 100 µM |  | > 100 µM |  | > 100 µM |  | > 100 µM |  | > 100 µM |  |  |  |  |  | 
5 | CC[O-].CC[O-].O=C1c2ccccc2C(=O)c2c(O)ccc([O-])c21.O=C1c2ccccc2C(=O)c2c(O)ccc([O-])c21.[Ti+4] |  | > 100 µM |  | > 100 µM |  | > 100 µM |  |  |  | > 100 µM |  | > 100 µM |  | > 100 µM |  | > 100 µM |  | > 100 µM |  | 
6 | COc1c2c(cc3nc4ccccc4nc13)CCC(C(C)(C)O)C2 (stereo not given) |  | > 100 µM |  | > 100 µM |  | > 100 µM |  | > 100 µM |  | > 100 µM |  | > 100 µM |  | > 100 µM |  | 76 µM |  |  |  | 
7 | NC1=NN(c2ccccc2)C(=O)C1C(=O)CCC(=O)Nc1cccc(C(F)(F)F)c1 (stereo not given) |  | > 100 µM |  | > 100 µM |  | > 100 µM |  | > 100 µM |  | > 100 µM |  | > 100 µM |  | > 100 µM |  | > 100 µM |  |  |  | 
8 | Cn1cc(C(=O)c2ccccc2)ccc1=O |  | > 100 µM |  | > 100 µM |  | > 100 µM |  | > 100 µM |  | > 100 µM |  | > 100 µM |  | > 100 µM |  | > 100 µM |  | > 100 µM |  | 
9 | O=C(O)CN(c1ccccc1)S(=O)(=O)c1ccccc1[N+](=O)[O-] |  | > 100 µM |  | > 100 µM |  |  |  | > 100 µM |  | > 100 µM |  | > 100 µM |  | > 100 µM |  | > 100 µM |  | > 100 µM |  | 
10 | Cc1noc(C)c1CCCOC1COc2ccccc2OCCOCCOc2ccccc2OC1 |  | > 100 µM |  | > 100 µM |  |  |  |  |  | > 100 µM |  | > 100 µM |  | > 100 µM |  | > 100 µM |  |  |  | 
11 | CCCCCCCCCCCCCC1CCC(CC)N1 (stereo not given) |  | 17.4 µM |  | 28.9 µM |  | 29.6 µM |  | 31.3 µM |  | 31.2 µM |  | 32.6 µM |  | 27.4 µM |  | 21.2 µM |  | 36.8 µM |  | 
12 | CC1=C(C)CC2(CCCCC2=O)S(=O)C1 (stereo not given) |  | > 100 µM |  | > 100 µM |  | > 100 µM |  | > 100 µM |  | > 100 µM |  | > 100 µM |  | > 100 µM |  | > 100 µM |  | > 100 µM |  | 
13 | CN(C)c1ccc(N)cc1 | 4.38 µM | 18 µM | 1.97 µM | 4.54 µM | 2.67 µM | 8.44 µM | 2.3 µM | 7.91 µM | 1.74 µM | 3.45 µM | 2.37 µM | 6.48 µM | 3.97 µM | 16.3 µM |  |  | 2.71 µM | 9.1 µM | 6.05 µM | 48.1 µM
14 | Cc1cc(C)nc(NS(=O)(=O)c2ccc(Nc3c4ccccc4nc4c(C(=O)Nc5ccc(S(=O)(=O)Nc6cc(C)on6)cc5)cccc34)cc2)n1 |  | > 100 µM |  | 34.1 µM |  | 31.2 µM |  | 39.5 µM |  | 65.5 µM |  | 63.1 µM |  | 63.2 µM |  | 61.4 µM |  | 56.3 µM |  | 
15 | CCOC1=NC(=O)CC(c2ccccc2)S1 (stereo not given) |  | > 100 µM |  | > 100 µM |  | > 100 µM |  | > 100 µM |  | > 100 µM |  | > 100 µM |  | > 100 µM |  | > 100 µM |  | > 100 µM |  | 
16 | COC(=O)c1cc(Br)c(Br)n1C |  | > 100 µM |  | > 100 µM |  | > 100 µM |  | > 100 µM |  | > 100 µM |  | > 100 µM |  | > 100 µM |  | > 100 µM |  |  |  | 
17 | CCOC(=O)Sc1ncnc2nc[nH]c12 | 4.65 µM | > 100 µM | 3.92 µM | 46.4 µM | 2.31 µM | > 100 µM |  |  | 0.491 µM | > 100 µM | 2.43 µM | > 100 µM | 4.14 µM | > 100 µM | 1.42 µM | 6.7 µM |  |  | 0.586 µM | > 100 µM
18 | N#Cc1nc(C2OC(COC(=O)c3ccccc3)C(OC(=O)c3ccccc3)C2OC(=O)c2ccccc2)oc1N (stereo not given) |  | > 100 µM |  | > 100 µM |  | > 100 µM |  | > 100 µM |  | > 100 µM |  | > 100 µM |  | 66.8 µM |  | 36.3 µM |  | 5.63 µM |  | 
19 | NC(CC(=O)OCc1ccccc1)C(=O)OCc1ccccc1 (stereo not given) |  | > 100 µM |  | > 100 µM |  | > 100 µM |  |  |  |  |  | > 100 µM |  | > 100 µM |  |  |  | > 100 µM |  | > 100 µM
20 | Cc1ccc(/C(=C/C=C(C#N)C#N)Sc2ccc(Cl)cc2)cc1 | 4.62 µM | 36.9 µM | 7.58 µM | 30.4 µM | 2.24 µM | 3.97 µM | 15 µM | 56.6 µM | 11.3 µM | > 100 µM | 4.07 µM | 16.8 µM |  |  |  |  | 2.34 µM | 7.96 µM | 3.95 µM | 11.3 µM
